Data from the NIST ThermoML archive (doi:10.1016/j.fluid.2013.06.031).
± gives the expanded uncertainty stated by the source.

Settings: Liquid, Closed cell (Static) method

SMILES: CC(F)(F)CC(F)(F)F [1,1,1,3,3-pentafluorobutane]
- vapor or sublimation pressure (332.79 K): 194.9 ± 0.7 kPa
- vapor or sublimation pressure (333.18 K): 197.1 ± 0.7 kPa
- vapor or sublimation pressure (342.65 K): 261.5 ± 0.8 kPa
- vapor or sublimation pressure (347.94 K): 303.9 ± 0.8 kPa
- vapor or sublimation pressure (352.87 K): 348.7 ± 0.9 kPa
- vapor or sublimation pressure (357.77 K): 401.1 ± 0.9 kPa
- vapor or sublimation pressure (363.03 K): 459.2 ± 1 kPa
- vapor or sublimation pressure (367.94 K): 519.8 ± 1.1 kPa
- vapor or sublimation pressure (372.87 K): 586.1 ± 1.2 kPa
- vapor or sublimation pressure (378.04 K): 662.3 ± 1.3 kPa
- vapor or sublimation pressure (382.95 K): 741.4 ± 1.4 kPa
- vapor or sublimation pressure (387.88 K): 828.9 ± 1.5 kPa
- vapor or sublimation pressure (393.02 K): 927.2 ± 1.7 kPa
- vapor or sublimation pressure (398.06 K): 1036.4 ± 1.8 kPa
- vapor or sublimation pressure (402.92 K): 1146 ± 2 kPa
- vapor or sublimation pressure (408.07 K): 1271.5 ± 2.2 kPa
- vapor or sublimation pressure (413.09 K): 1403.8 ± 2.4 kPa
- vapor or sublimation pressure (418 K): 1542.4 ± 2.7 kPa
- vapor or sublimation pressure (423.13 K): 1698.6 ± 2.9 kPa
- vapor or sublimation pressure (428.15 K): 1862.7 ± 3.2 kPa
- vapor or sublimation pressure (433.05 K): 2034.5 ± 3.5 kPa
- vapor or sublimation pressure (438.03 K): 2225.4 ± 3.8 kPa
- vapor or sublimation pressure (442.99 K): 2425.5 ± 4.1 kPa
- vapor or sublimation pressure (447.89 K): 2637.1 ± 4.4 kPa
